The target of this assay is PDE10A (Homo sapiens (Human), UniProt Q9Y233). The assay is described as follows: Measurement of PDE activity (recombinant PDE, cAMP HTRF). Format: biochemical. As to conditions: 20 nM cyclic nucleotide substrate, 60 minutes at 29 C. The procedure: a) Measurement of PDE Activity
Chain of PDE10A (Q9Y233 whole entry, species assumed, canonical isoform): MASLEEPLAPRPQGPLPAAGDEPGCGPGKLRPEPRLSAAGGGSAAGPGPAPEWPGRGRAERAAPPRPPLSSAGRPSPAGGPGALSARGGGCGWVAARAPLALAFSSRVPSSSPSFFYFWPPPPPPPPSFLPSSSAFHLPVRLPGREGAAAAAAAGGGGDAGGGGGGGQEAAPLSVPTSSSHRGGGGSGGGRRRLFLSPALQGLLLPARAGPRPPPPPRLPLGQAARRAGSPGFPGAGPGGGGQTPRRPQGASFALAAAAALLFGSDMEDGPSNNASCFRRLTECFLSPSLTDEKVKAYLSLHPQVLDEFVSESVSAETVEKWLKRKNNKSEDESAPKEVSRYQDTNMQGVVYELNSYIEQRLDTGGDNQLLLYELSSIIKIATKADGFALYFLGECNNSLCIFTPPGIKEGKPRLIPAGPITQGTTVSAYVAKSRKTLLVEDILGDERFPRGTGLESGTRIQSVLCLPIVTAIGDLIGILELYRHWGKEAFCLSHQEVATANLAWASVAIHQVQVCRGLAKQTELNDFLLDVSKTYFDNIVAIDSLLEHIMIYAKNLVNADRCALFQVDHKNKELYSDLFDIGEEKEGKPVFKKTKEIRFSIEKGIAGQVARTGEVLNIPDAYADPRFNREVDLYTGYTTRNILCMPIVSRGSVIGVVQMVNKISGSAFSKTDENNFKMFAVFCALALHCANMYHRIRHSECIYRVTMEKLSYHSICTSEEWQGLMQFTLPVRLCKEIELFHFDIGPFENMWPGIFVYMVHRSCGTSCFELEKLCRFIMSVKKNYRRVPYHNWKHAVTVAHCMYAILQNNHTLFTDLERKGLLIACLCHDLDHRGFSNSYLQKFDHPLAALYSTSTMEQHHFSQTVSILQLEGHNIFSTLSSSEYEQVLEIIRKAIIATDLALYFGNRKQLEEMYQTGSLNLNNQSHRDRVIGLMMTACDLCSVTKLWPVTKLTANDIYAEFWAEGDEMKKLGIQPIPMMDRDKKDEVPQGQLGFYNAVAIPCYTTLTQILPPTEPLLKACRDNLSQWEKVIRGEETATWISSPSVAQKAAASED
The recombinant PDE proteins are used in in vitro enzymatic reaction for measurement of PDE activity. These recombinant proteins, including PDE10A (human, rat and mouse PDE10) and isoforms of PDEs 1, 3, 4, and 5, were purchased from commercial vendor BPS Bioscience. The enzymatic activity of PDEs was determined by cAMP measurement kit from CisBio (IBA) using HTRF technology.
The PDE enzymatic reaction was carried out in assay buffer (20 mM Tris-HCl pH7.5, 10 mM MgCl2, 0.1% bovine serum albumin) containing enzyme and substrate. […] The substrate cyclic nucleotide (cAMP or cGMP) concentration used in the assay was 20 nM for PDE10, and 100 nM for other PDEs. The inhibitory effect of compound was determined by incubating various concentration of inhibitor in the enzymatic assay. […] Next, the compound at varying concentration was mixed with PDE enzyme. The reaction was initiated by addition of cyclic nucleotide substrate, and incubated for 60 minutes at 29 C. The reaction was stopped by addition of lysis buffer from assay kit. The cAMP-d2 and anti-cAMP cryptate in the lysis buffer detected the level of cAMP left from the PDE hydrolysis reaction. […] Thus, IC50 value of inhibitor can be obtained by plotting inhibitor concentration against PDE activity at that concentration.
As for `CCC(CC)n1cc(C(=O)NCc2ccncc2)c2cc(OC)c(OC)cc2c1=O` [Example 261, 6,7-Dimethoxy-1-oxo-2-(pentan-3-yl)-N-(pyridin-4-ylmethyl)-1,2-dihydroisoquinoline-4-carboxamide], the IC50 lay in the range of 200 to 500 nM.
On to `CCC(CC)n1cc(C(=O)NCc2ccoc2C)c2cc(OC)c(OC)cc2c1=O` [Example 268, 6,7-Dimethoxy-N-((2-methylfuran-3-yl)methyl)-1-oxo-2-(pentan-3-yl)-1,2-dihydroisoquinoline-4-carboxamide], for which the IC50 fell in the range of 200 to 500 nM.
In the case of `CCn1cc(C(=O)NC2CCc3c(F)cccc32)c2cc(OC)c(OC)cc2c1=O` (stereo not drawn) [Example 173, 2-Ethyl-N-(4-fluoro-2,3-dihydro-1H-inden-1-yl)-6,7-dimethoxy-1-oxo-1,2-dihydroisoquinoline-4-carboxamide], the 50% inhibitory concentration (IC50) is 200 to 500 nM.
In the case of `COc1cc2c(C(=O)NC3CCc4ccccc43)cn(CCc3ccc4ccccc4n3)c(=O)c2cc1OC` (stereo not drawn) [Example 323, N-Indan-1-yl-6,7-dimethoxy-1-oxo-2-[2-(2-quinolyl)ethyl]isoquinoline-4-carboxamide; 2,2,2-trifluoroacetic acid], the IC50 was in the range of 200 to 500 nM.
`CCCC(C)NC(=O)c1cn(CC)c(=O)c2cc(OC)c(OC)cc12` (stereo not drawn) [Example 15, 2-Ethyl-6,7-dimethoxy-1-oxo-1,2-dihydro-isoquinoline-4-carboxylic acid (1-methyl-butyl)-amide]: the IC50 lay within 200 to 500 nM.
`CCC(CC)n1cc(C(=O)NCc2ccn(C)n2)c2cc(OC)c(OC)cc2c1=O` [Example 269, 6,7-Dimethoxy-N-((1-methyl-1H-pyrazol-3-yl)methyl)-1-oxo-2-(pentan-3-yl)-1,2-dihydroisoquinoline-4-carboxamide]: the IC50 fell in the range of 200 to 500 nM.
As for `CCC(CC)n1cc(C(=O)NC2CCc3cc(C)ccc32)c2cc(OC)c(OC)cc2c1=O` (stereo not drawn) [Example 253, 6,7-Dimethoxy-N-(5-methyl-2,3-dihydro-1H-inden-1-yl)-1-oxo-2-(pentan-3-yl)-1,2-dihydroisoquinoline-4-carboxamide], the IC50 is below 100 nM.
The result for `CCn1nc(C(=O)NC2CCc3ncccc32)c2cc(OC)c(OC)cc2c1=O` (stereo not drawn) [Example 129, 3-Ethyl-6,7-dimethoxy-4-oxo-3,4-dihydro-phthalazine-1-carboxylic acid (6,7-dihydro-5H-[1]pyrindin-5-yl)-amide] reads below 100 nM.
The result for `CCC(CC)n1cc(C(=O)NC2CCc3sccc32)c2cc(OC)c(OC)cc2c1=O` (stereo not drawn) [Example 193, 2-(1-Ethyl-propyl)-6,7-dimethoxy-1-oxo-1,2-dihydro-isoquinoline-4-carboxylic acid (5,6-dihydro-4H-cyclopenta[b]thiophen-4-yl)-amide] reads below 100 nM; that for `CCn1cc(C(=O)Nc2ccncc2)c2cc(OC)c(OC)cc2c1=O` [Example 164, 2-Ethyl-6,7-dimethoxy-1-oxo-N-(pyridin-4-yl)-1,2-dihydroisoquinoline-4-carboxamide], 200 to 500 nM.
For `CCC(CC)n1cc(C(=O)NCc2scnc2C)c2cc(OC)c(OC)cc2c1=O` [Example 249, 6,7-Dimethoxy-N-((4-methylthiazol-5-yl)methyl)-1-oxo-2-(pentan-3-yl)-1,2-dihydroisoquinoline-4-carboxamide], the concentration for half-maximal inhibition (IC50) lay within 200 to 500 nM.
To `CCC(CC)n1cc(C(=O)NCc2cc(C)cs2)c2cc(OC)c(OC)cc2c1=O` [Example 257, 6,7-Dimethoxy-N-((4-methylthiophen-2-yl)methyl)-1-oxo-2-(pentan-3-yl)-1,2-dihydroisoquinoline-4-carboxamide] belongs 100 to 200 nM.
For the compound `CCn1cc(C(=O)NCc2cccnc2)c2cc(OC)c(OC)cc2c1=O` [Example 148, 2-Ethyl-6,7-dimethoxy-1-oxo-N-(pyridin-3-ylmethyl)-1,2-dihydroisoquinoline-4-carboxamide], the IC50 lay in the range of 200 to 500 nM.
To `CCn1cc(C(=O)NCc2cccc(F)c2F)c2cc(OC)c(OC)cc2c1=O` [Example 33, 2-Ethyl-6,7-dimethoxy-1-oxo-1,2-dihydro-isoquinoline-4-carboxylic acid 2,3-difluoro-benzylamide] belongs 200 to 500 nM; to `CCC(CC)n1cc(C(=O)NC2CCc3cc(F)ccc32)c2cc(OC)c(OC)cc2c1=O` (stereo not drawn) [Example 252, N-(5-Fluoro-2,3-dihydro-1H-inden-1-yl)-6,7-dimethoxy-1-oxo-2-(pentan-3-yl)-1,2-dihydroisoquinoline-4-carboxamide], 100 to 200 nM.
The result for `CCC(CC)n1nc(C(=O)NC2CCc3ncccc32)c2cc(OC)c(OC)cc2c1=O` (stereo not drawn) [Example 233, 3-(1-Ethyl-propyl)-6,7-dimethoxy-4-oxo-3,4-dihydro-phthalazine-1-carboxylic acid (6,7-dihydro-5H-[1]pyrindin-5-yl)-amide] reads 100 to 200 nM; that for `CCn1cc(C(=O)NCc2ccc(C)cc2F)c2cc(OC)c(OC)cc2c1=O` [Example 273, 2-Ethyl-N-[(2-fluoro-4-methyl-phenyl)methyl]-6,7-dimethoxy-1-oxo-isoquinoline-4-carboxamide], 200 to 500 nM; that for `CCCCNC(=O)c1cn(CCc2ccc3ccccc3n2)c(=O)c2cc(OC)c(OC)cc12` [Example 322, N-Butyl-6,7-dimethoxy-1-oxo-2-[2-(2-quinolyl)ethyl]isoquinoline-4-carboxamide; 2,2,2-trifluoroacetic acid], below 100 nM.
`CCC(CC)n1cc(C(=O)NCc2ccc(F)c(F)c2)c2cc(OC)c(OC)cc2c1=O` [Example 189, 2-(1-Ethyl-propyl)-6,7-dimethoxy-1-oxo-1,2-dihydro-isoquinoline-4-carboxylic acid 3,4-difluoro-benzylamide]: the half-inhibitory concentration (IC50) was 100 to 200 nM.
To `CCn1cc(C(=O)N2Cc3ccccc3C2)c2cc(OC)c(OC)cc2c1=O` [Example 51, 4-(1,3-Dihydro-isoindole-2-carbonyl)-2-ethyl-6,7-dimethoxy-2H-isoquinolin-1-one] belongs 200 to 500 nM; to `CCn1cc(C(=O)NC(C)c2ccccc2)c2cc(OC)c(OC)cc2c1=O` (stereo not drawn) [Example 29, 2-Ethyl-6,7-dimethoxy-1-oxo-1,2-dihydro-isoquinoline-4-carboxylic acid (1-phenyl-ethyl)-amide], 200 to 500 nM.
To `CCc1nc(CNC(=O)c2cn(C(CC)CC)c(=O)c3cc(OC)c(OC)cc23)cs1` [Example 255, N-((2-Ethylthiazol-4-yl)methyl)-6,7-dimethoxy-1-oxo-2-(pentan-3-yl)-1,2-dihydroisoquinoline-4-carboxamide] belongs 200 to 500 nM; to `CCn1cc(C(=O)NCc2cccc(Cl)c2)c2cc(OC)c(OC)cc2c1=O` [Example 142, N-(3-Chlorobenzyl)-2-ethyl-6,7-dimethoxy-1-oxo-1,2-dihydroisoquinoline-4-carboxamide], 100 to 200 nM.
In the case of `CCn1cc(C(=O)NC2CCc3cc(F)ccc32)c2cc(OC)c(OC)cc2c1=O` (stereo not drawn) [Example 177, 2-Ethyl-N-(5-fluoro-2,3-dihydro-1H-inden-1-yl)-6,7-dimethoxy-1-oxo-1,2-dihydroisoquinoline-4-carboxamide], the 50% inhibitory concentration (IC50) was 200 to 500 nM.
The result for `CCn1cc(C(=O)NCc2ccccc2C)c2cc(OC)c(OC)cc2c1=O` [Example 154, 2-Ethyl-6,7-dimethoxy-N-(2-methylbenzyl)-1-oxo-1,2-dihydroisoquinoline-4-carboxamide] reads 100 to 200 nM.
For `CCn1cc(C(=O)NC(C)CC(C)C)c2cc(OC)c(OC)cc2c1=O` (stereo not drawn) [Example 23, 2-Ethyl-6,7-dimethoxy-1-oxo-1,2-dihydro-isoquinoline-4-carboxylic acid (1,3-dimethyl-butyl)-amide], the concentration for half-maximal inhibition (IC50) is 200 to 500 nM.
As to `CCn1cc(C(=O)NCc2cc(F)cc(F)c2)c2cc(OC)c(OC)cc2c1=O` [Example 37, 2-Ethyl-6,7-dimethoxy-1-oxo-1,2-dihydro-isoquinoline-4-carboxylic acid 3,5-difluoro-benzylamide], the IC50 is 100 to 200 nM.
As to `CCn1cc(C(=O)Nc2ccc(F)cc2)c2cc(OC)c(OC)cc2c1=O` [Example 156, 2-Ethyl-N-(4-fluorophenyl)-6,7-dimethoxy-1-oxo-1,2-dihydroisoquinoline-4-carboxamide], the IC50 fell in the range of 200 to 500 nM.
The result for `CCn1cc(C(=O)NCCC(C)(C)C)c2cc(OC)c(OC)cc2c1=O` [Example 24, 2-Ethyl-6,7-dimethoxy-1-oxo-1,2-dihydro-isoquinoline-4-carboxylic acid (3,3-dimethyl-butyl)-amide] reads 200 to 500 nM; that for `CCn1cc(C(=O)NCc2ccccc2)c2cc(OC)c(OC)cc2c1=O` [Example 26, 2-Ethyl-6,7-dimethoxy-1-oxo-1,2-dihydro-isoquinoline-4-carboxylic acid benzylamide], 100 to 200 nM.
For the compound `CCn1cc(C(=O)Nc2ccccc2)c2cc(OC)c(OC)cc2c1=O` [Example 151, 2-Ethyl-6,7-dimethoxy-1-oxo-N-phenyl-1,2-dihydroisoquinoline-4-carboxamide], the IC50 is 200 to 500 nM.
`CCC(CC)n1cc(C(=O)NC2CCc3ccccc32)c2cc(OC)c(OC)cc2c1=O` (stereo not drawn) [Example 135, 2-(1-Ethyl-propyl)-6,7-dimethoxy-1-oxo-1,2-dihydro-isoquinoline-4-carboxylic acid indan-1-ylamide]: the IC50 is below 100 nM.
As to `CCn1cc(C(=O)NC2CCc3cc(Cl)ccc32)c2cc(OC)c(OC)cc2c1=O` (stereo not drawn) [Example 169, N-(5-Chloro-2,3-dihydro-1H-inden-1-yl)-2-ethyl-6,7-dimethoxy-1-oxo-1,2-dihydroisoquinoline-4-carboxamide], the IC50 lay in the range of 200 to 500 nM.

By IC50 is commonly meant the concentration needed to halve the response being measured.

The values are drawn from patent publication US9856220B2 (AbbVie Deutschland GmbH & Co. KG, priority 2011, dated 2018).
